According to PubChem BioAssay (NCI):
“And” between values parts separate entries of the source, which are not always exact repeats. Identical values can stand only once.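 The compound was tested at five concentrations on cells cultured in 96-well plates, with a 48-hour exposure period. Here, GI50 denotes the concentration required for 50% inhibition of growth. TGI: concentration producing complete growth inhibition.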

Key:
Experiment in all cases: NCI-60 cell line screen, 48 h
SK-MEL-5 melanoma = tested on: SK-MEL-5 melanoma
MDA-MB-435 = tested on: MDA-MB-435
SF-295 CNS = tested on: SF-295 CNS
OVCAR-5 ovarian = tested on: OVCAR-5 ovarian
KM12 colon = tested on: KM12 colon
A549 NSCLC = tested on: A549 NSCLC
SNB-19 CNS = tested on: SNB-19 CNS
MOLT-4 leukemia = tested on: MOLT-4 leukemia
MCF7 breast = tested on: MCF7 breast
HL-60(TB) leukemia = tested on: HL-60(TB) leukemia

| SMILES | TGI (SK-MEL-5 melanoma) | TGI (MDA-MB-435) | TGI (SF-295 CNS) [µM] | TGI (OVCAR-5 ovarian) [µM] | TGI (KM12 colon) [µM] | TGI (A549 NSCLC) [µM] | TGI (SNB-19 CNS) | TGI (MOLT-4 leukemia) | TGI (MCF7 breast) | TGI (HL-60(TB) leukemia) [µM] | GI50 (SK-MEL-5 melanoma) | GI50 (MDA-MB-435) | GI50 (SF-295 CNS) | GI50 (OVCAR-5 ovarian) | GI50 (KM12 colon) | GI50 (A549 NSCLC) | GI50 (SNB-19 CNS) | GI50 (MOLT-4 leukemia) | GI50 (MCF7 breast) | GI50 (HL-60(TB) leukemia) |
| --- | --- | --- | --- | --- | --- | --- | --- | --- | --- | --- | --- | --- | --- | --- | --- | --- | --- | --- | --- | --- |
| CC(=O)C1=C(O)/C(=C\c2ccco2)OC1=O | > 10 µM | > 10 µM | > 10 | > 10 | > 10 | > 10 | > 10 µM | > 10 µM | > 10 µM | > 10 |  |  |  |  |  |  |  |  |  |  |
| O=C(Nc1ccccc1)Nc1ccccc1CNc1nc(Nc2ccc(OCCN3CCCC3)cc2)ncc1Cl | 11.9 µM | 9.58 µM | 14 | 13.3 | 7.97 | 21.7 | 12.5 µM | 20 µM | 7.82 µM | 2.5 | 5.27 µM | 3.1 µM | 7.24 µM | 6.6 µM | 2.15 µM | 5.7 µM | 5.53 µM | 2.96 µM | 1.69 µM | 1.06 µM |
| CN1c2ccccc2C(=O)Nc2cnc(Cl)nc21 | > 100 µM | > 100 µM | > 100 | > 100 | > 100 | > 100 | > 100 µM | > 100 µM | > 100 µM | > 100 |  |  |  |  |  |  |  |  |  |  |
| CCCCCCN(CCCCCC)CC(O)c1cccc2ccc(Cl)cc12 (stereo not given) | 5.17 µM | 29.4 µM | 22.1 | 13.7 | 19.6 | 26.4 | 26.6 µM | 26.1 µM | 20.3 µM | 24.6 | 2.12 µM | 10.2 µM | 6.32 µM | 2.6 µM | 5.48 µM | 12.2 µM | 12.9 µM | 7.81 µM | 7.52 µM | 9.63 µM |
| CC(C)(C)NCCC(O)c1cc(C(F)(F)F)nc2c(C(F)(F)F)cccc12 (stereo not given) | 25.5 µM | 27.6 µM | 22.6 | 29.3 | 7.58 | 13.5 | 27.3 µM | 18.6 µM | 27.6 µM | 27.5 |  |  |  |  |  |  |  |  |  |  |
| COc1cc(OC)cc(N2CCN(C(=O)Nc3nc4cc(F)ccc4nc3OC)CC2)c1 | 0.294 µM and 0.399 µM and 0.16 µM | 0.0215 µM and 0.0336 µM | 20.6 | > 100 | > 100 | > 100 | > 95.9 µM and 40.3 µM | 31.1 µM and 30.7 µM | 24.7 µM and 22.8 µM |  | < 0.023 µM and 0.0297 µM and 0.023 µM | < 0.01 µM and 0.01 µM | < 0.0184 µM and 0.0255 µM | 0.0557 µM and 0.158 µM and 0.0528 µM | 0.0282 µM and 0.0358 µM and 0.0302 µM | 0.0367 µM and 0.0449 µM and 0.0357 µM | 0.0418 µM and 0.045 µM and 0.0431 µM | 0.049 µM and 0.0457 µM and 0.044 µM | 0.0239 µM and 0.0265 µM and 0.0142 µM | 0.0226 µM and 0.0299 µM and 0.0261 µM |
| Cc1csc(Nc2nc(-c3cccc(Cl)c3)nc(C(Cl)(Cl)Cl)n2)n1 | > 33.3 µM | > 33.3 µM | 9.89 | > 33.3 | 6.21 | 5.27 | > 33.3 µM | > 33.3 µM | > 33.3 µM | 3.81 | > 33.3 µM | 7.83 µM | 1.29 µM | 8.86 µM | 1.64 µM | 1.06 µM | 3.27 µM | 14 µM | 1.46 µM | 0.994 µM |
| O=C(NO)C(O)C(O)C(O)C(O)CO (stereo not given) | > 100 µM | > 100 µM | > 100 | > 100 | > 100 | > 100 | > 100 µM | > 100 µM | > 100 µM | > 21.5 | > 100 µM | > 100 µM |  | > 100 µM | > 100 µM and 53.2 µM | > 100 µM and 54.1 µM | > 100 µM | > 100 µM | > 100 µM and 46.4 µM | > 21.5 µM |
| O=[N+]([O-])O.[NH-]C1CCCCC1[NH-].[NH-]C1CCCCC1[NH-].[NH-]C1CCCCC1[NH-].[OH-].[OH-].[OH-].[Pt+4].[Pt+4].[Pt+4] (stereo not given) | 1 µM | 6.3 µM | > 66.8 | 93.8 | > 100 | 31.3 | > 58.9 µM | 2.2 µM | > 45.6 µM | 4.01 | 0.0363 µM | 0.367 µM | 0.971 µM | 2.03 µM | 4.05 µM | 0.319 µM | 1.06 µM | 0.0283 µM | 0.157 µM | 1.09 µM |
| CCOC(=O)Cc1csc(NC(=O)C(OC(=O)c2ccc(N)cc2)c2ccccc2)n1 (stereo not given) | 39.1 µM | > 100 µM | > 100 | > 100 | > 100 | > 100 | > 100 µM | > 100 µM | > 100 µM | 92.5 | 18.9 µM | 31.1 µM | 42.2 µM | > 100 µM | 37.5 µM | 51.5 µM | 53 µM | 24.8 µM | 32.3 µM | 18.4 µM |
| CCSc1nc(N)c2cnn(C)c2n1 | 38.9 µM | > 100 µM | > 100 | > 100 | > 100 | > 100 | > 100 µM | > 100 µM | > 100 µM | > 100 | 16.1 µM | 38.7 µM | 51.7 µM | 49.9 µM | 34.6 µM | 52.6 µM | 58.4 µM | 59.9 µM | 28 µM | 52.1 µM |
| COC(=O)C1=C(O)C(C(=O)OC)[C@@]2(O)[C@@H](C(=O)OC)C(c3ccc(OC(=O)C(CC(C)C)NC(C)=O)cc3)C[C@@H]1[C@@H]2C(=O)OC (stereo not given in full) | > 100 µM | > 100 µM | > 100 | > 100 | > 100 | > 100 | > 100 µM | 97.2 µM | > 100 µM | > 100 | 18.5 µM | > 100 µM | 74.8 µM | 32.2 µM | 28.2 µM | 38.3 µM | 37.1 µM | 48.3 µM | 48.8 µM | 43.9 µM |
| CCOC(=O)C1=C(c2ccccc2)N(Cc2ccccc2)C2(O)C=CC(=O)C3C(=O)N(c4ccccc4)C(=O)C132 (stereo not given) | 2.93 µM | 4.51 µM | 11.5 | 15.5 | 3.21 | 11.4 | 4.59 µM | 5.01 µM | 3.08 µM | 4.58 | 1.49 µM | 1.95 µM | 2.9 µM | 3.23 µM | 1.74 µM | 2.96 µM | 2 µM | 1.89 µM | 1.29 µM | 1.8 µM |
| CC1(C)CC2(C)OC2C2(C1)N=NC(=Nc1ccccc1)O2 (stereo not given) | 18.5 µM | 24.2 µM | 29.1 | 26.2 | 28.6 | 39.5 | 28 µM | 9.96 µM | 13.2 µM | 26.1 | 5.48 µM | 3.01 µM | 13.3 µM | 11.2 µM | 13.6 µM | 11 µM | 14.1 µM | 2.63 µM | 1.81 µM | 5.26 µM |
| CCNC(=O)Oc1ccc(/C(=C(\C)c2ccc(Cl)cc2)c2ccc(OCCN3CCCCC3)cc2)cc1 | 3.17 µM | 14.1 µM | 4.36 | 23.8 | 15.4 | 22.4 | 16.2 µM | 10.6 µM | 8.06 µM | 4.47 | 1.79 µM | 3.39 µM | 1.95 µM | 11 µM | 3.81 µM | 8.47 µM | 4.77 µM | 3.27 µM | 0.484 µM | 1.99 µM |
| CC(=O)N[C@@H]1CCC[C@H](C(=O)Nc2cc(-c3cnn4c3CC(C)(C)C4)c(Cl)cn2)C1 | < 0.0406 µM | 11.9 µM | > 100 | > 100 | 12.2 | > 100 | > 100 µM | 0.13 µM | 40.6 µM | < 0.017 | < 0.01 µM | < 0.013 µM | < 0.0125 µM | < 0.01 µM | < 0.01 µM | < 0.0108 µM | < 0.01 µM | < 0.0117 µM | < 0.01 µM | < 0.01 µM |
| COc1cc(C(=O)/C=C/c2c(C(F)(F)F)nc3sccn23)cc(OC)c1OC | 2.96 µM | 4.35 µM | 7.86 |  | 2.97 | 18 | 10.2 µM | 5.81 µM | 3.33 µM | 7.63 | 1.59 µM | 1.61 µM | 2.58 µM |  | 1.47 µM | 3.44 µM | 2.67 µM | 1.92 µM | 1.25 µM | 1.83 µM |
| CCCCCCCCCCCCCCCCCC1=NC(C)(C)CN1CCO | 4.95 µM | 3.42 µM | 3.68 | 3.6 | 3.16 |  | 3.28 µM | 4.73 µM | 3.32 µM | 4.11 | 2.16 µM | 1.73 µM | 1.79 µM | 1.78 µM | 1.78 µM |  | 1.66 µM | 1.96 µM | 1.78 µM | 1.81 µM |
| O=c1c2cc(F)ccc2sc2c(NCCCN3CCCC3)nc3ccccc3c12 | 3.07 µM | 3.25 µM | 4.39 | 3.74 |  | 3.83 | 3.53 µM | 4.22 µM | 2.89 µM | 4.58 | 1.69 µM | 1.8 µM | 2.1 µM | 1.85 µM |  | 1.87 µM | 1.7 µM | 1.97 µM | 1.22 µM | 2.06 µM |
| COc1ccc(N(Cc2cc(OC)c(OC)c(OC)c2)C2OC(=O)c3ccccc32)cc1 (stereo not given) | 53.1 µM | 0.433 µM | > 100 | > 100 | > 36.7 | > 100 |  | > 100 µM | > 100 µM | 2.25 | 0.474 µM | 0.165 µM | 0.534 µM | 3.53 µM | 0.434 µM | 0.626 µM |  | 0.661 µM | 0.386 µM | 0.308 µM |
